From patent US9518060B2, “Substituted pyrrolo[3,4-c]pyrazoles as PKC kinase inhibitors” (PFIZER INC., priority 2007, dated 2016)
Structures can show the parent of a compound that is named as a salt.

What follows are compounds tested against Protein Kinase C beta 2 (PKCβII) (Homo sapiens (Human), UniProt P05771) (assay: PKCβII coupled spectrophotometric kinase assay (PK/LDH, NADH absorbance at 340 nm)). Conditions: apparent Ki, ATP competitive inhibition model (Morrison equation); 0.1 mM ATP, 5 nM PKC, 30° C.; read-out: Ki app.
Assay type: biochemical
Outline: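 PK/LDH-coupled ADP detection (NADH loss at 340 nm), 20 min at 30° C, pH 7.4; 5 nM PKCβII, 0.15 mM pseudosubstrate peptide, 0.1 mM ATP, with CaCl2, PS and PMA activators, 7.5% DMSO. Apparent Ki from initial velocities fitted to ATP-competitive Morrison model over 10,000–0.169 nM inhibitor.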

Chain of Protein Kinase C beta 2 (PKCβII) (P05771 other isoform, or with tags, fused parts or gaps): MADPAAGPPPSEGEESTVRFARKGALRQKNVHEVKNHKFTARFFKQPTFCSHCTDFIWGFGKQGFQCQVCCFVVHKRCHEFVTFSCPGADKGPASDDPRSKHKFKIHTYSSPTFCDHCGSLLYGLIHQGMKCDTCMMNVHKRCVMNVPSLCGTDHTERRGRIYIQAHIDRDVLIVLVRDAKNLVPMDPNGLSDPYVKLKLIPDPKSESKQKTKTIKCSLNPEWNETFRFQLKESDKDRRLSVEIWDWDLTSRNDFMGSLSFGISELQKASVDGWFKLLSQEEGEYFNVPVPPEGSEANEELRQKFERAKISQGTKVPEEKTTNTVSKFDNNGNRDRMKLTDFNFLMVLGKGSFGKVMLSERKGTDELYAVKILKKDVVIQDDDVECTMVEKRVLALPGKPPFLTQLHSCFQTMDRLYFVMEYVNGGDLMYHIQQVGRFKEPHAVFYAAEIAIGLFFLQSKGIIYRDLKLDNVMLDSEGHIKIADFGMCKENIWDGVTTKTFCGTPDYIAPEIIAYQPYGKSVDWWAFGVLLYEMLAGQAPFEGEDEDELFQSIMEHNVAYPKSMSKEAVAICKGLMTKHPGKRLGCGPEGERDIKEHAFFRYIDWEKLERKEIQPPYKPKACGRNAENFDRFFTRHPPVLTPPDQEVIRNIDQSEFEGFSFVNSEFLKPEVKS

Row | Ki [nM] | SMILES
1 | 15.2 | COCCOc1ncc(F)c(Nc2n[nH]c3c2CN(C(=O)N2C[C@@H](C)N(C)C[C@@H]2C)C3(C)C)n1 [Example K12, N-[5-fluoro-2-(2-methoxyethoxy)pyrimidin-4-yl]-6,6-dimethyl-5-{[(2S,5R)-2,4,5-trimethylpiperazin-1-yl]carbonyl}-1,4,5,6-tetrahydropyrrolo[3,4-c]pyrazol-3-amine]
2 | 1.64 | CCc1ncc(F)c(Nc2n[nH]c3c2CN(C(=O)N2C[C@@H](C)N(CCCOC)C[C@@H]2C)C3(C)C)n1 [Example E2, N-(2-ethyl-5-fluoropyrimidin-4-yl)-5-{[(2S,5R)-4-(3-methoxypropyl)-2,5-dimethylpiperazin-1-yl]carbonyl}-6,6-dimethyl-1,4,5,6-tetrahydropyrrolo[3,4-c]pyrazol-3-amine]
3 | 14.8 | CCN1C[C@H](C)N(C(=O)N2Cc3c(Nc4nc(C)nc(C)c4F)n[nH]c3C2(C)C)C[C@H]1C [AA3, 5-{[(2S,5R)-4-ethyl-2,5-dimethylpiperazin-1-yl]carbonyl}-N-(5-fluoro-2,6-dimethylpyrimidin-4-yl)-6,6-dimethyl-1,4,5,6-tetrahydropyrrolo[3,4-c]pyrazol-3-amine]
4 | 10.5 | CCc1ncc(F)c(Nc2n[nH]c3c2CN(C(=O)N2C[C@@H](C)N(C)C[C@@H]2C)C3(C)C)n1 [Example E1, N-(2-ethyl-5-fluoropyrimidin-4-yl)-6,6-dimethyl-5-{[(2S,5R)-2,4,5-trimethylpiperazin-1-yl]carbonyl}-1,4,5,6-tetrahydropyrrolo[3,4-c]pyrazol-3-amine acetate salt]
5 | 7.21 | Cc1ncc(F)c(Nc2n[nH]c3c2CN(C(=O)N2CC(C)(C)N(C)C[C@@H]2C)C3(C)C)n1 [Example H3, N-(5-fluoro-2-methylpyrimidin-4-yl)-6,6-dimethyl-5-{[(2S)-2,4,5,5-tetramethylpiperazin-1-yl]carbonyl}-1,4,5,6-tetrahydropyrrolo[3,4-c]pyrazol-3-amine]

More lines, now with the values behind:

Row | SMILES | Ki [nM]
6 | COc1ccnc(Nc2n[nH]c3c2CN(C(=O)N2C[C@@H](C)N(CC4CCOCC4)C[C@@H]2C)C3(C)C)n1 [Example J14, 5-{[(2S,5R)-2,5-dimethyl-4-(tetrahydro-2H-pyran-4-ylmethyl)piperazin-1-yl]carbonyl}-N-(4-methoxypyrimidin-2-yl)-6,6-dimethyl-1,4,5,6-tetrahydropyrrolo[3,4-c]pyrazol-3-amine] | 19.2
7 | C[C@@H]1CN(C(=O)N2Cc3c(Nc4nccc(C(F)(F)F)n4)n[nH]c3C2(C)C)[C@@H](C)CN1C1CCOCC1 [Example J13] | < 10
8 | Cc1ncc(F)c(Nc2n[nH]c3c2CN(C(=O)N2C[C@@H]4CCCN4C[C@@H]2C)C3(C)C)n1 [Example H1, N-(5-fluoro-2-methylpyrimidin-4-yl)-6,6-dimethyl-5-{[(3S,8aS)-3-methylhexahydropyrrolo[1,2-a]pyrazin-2(1H)-yl]carbonyl}-1,4,5,6-tetrahydropyrrolo[3,4-c]pyrazol-3-amine] | 39.8
9 | C[C@H]1CN(C)C(C)(C)CN1C(=O)N1Cc2c(Nc3ccnc(N(C)C)n3)n[nH]c2C1(C)C [Example A9, N^4-(6,6-dimethyl-5-{[(2S)-2,4,5,5-tetramethylpiperazin-1-yl]carbonyl}-1,4,5,6-tetrahydropyrrolo[3,4-c]pyrazol-3-yl)-N^2,N^2-dimethylpyrimidine-2,4-diamine] | 9.73
10 | CCOc1ncc(F)c(Nc2n[nH]c3c2CN(C(=O)N2C[C@@H](C)N(CC4CCOCC4)C[C@@H]2C)C3(C)C)n1 [Example K19, 5-{[(2S,5R)-2,5-dimethyl-4-(tetrahydro-2H-pyran-4-ylmethyl)piperazin-1-yl]carbonyl}-N-(2-ethoxy-5-fluoropyrimidin-4-yl)-6,6-dimethyl-1,4,5,6-tetrahydropyrrolo[3,4-c]pyrazol-3-amine] | < 10
11 | COCCCOc1ncc(F)c(Nc2n[nH]c3c2CN(C(=O)C2(F)CCN(C)CC2)C3(C)C)n1 [Example L3, N-[5-fluoro-2-(3-methoxypropoxy)pyrimidin-4-yl]-5-[(4-fluoro-1-methylpiperidin-4-yl)carbonyl]-6,6-dimethyl-1,4,5,6-tetrahydropyrrolo[3,4-c]pyrazol-3-amine] | 58.6
